Results: patent publication US12077503B2, “Substituted cyclic amides and their use as herbicides” (FMC CORPORATION, priority 2015, dated 2024)

What was measured:
Assay type in all cases: in vivo
[1] = system: ivy-leaved morning glory (Ipomoea hederacea); test: Test G Pre-Emergence Protocol; settings: Ipomoea, pre-emergence, 312 h, evaluated after 13 days; for pest or weed control at 15.625 g/ha: 15.625 g ai/ha, read-out: Morning-glory, Ivy-leaved damage rating (100=total damage to plant; 0=no damage to plant); for pest or weed control at 62.5 g/ha: 62.5 g ai/ha, 100=total damage to plant, 0=no damage to plant, read-out: plant damage rating, Morningglory, Ivy-leaved; for pest or weed control at 250 g/ha: 250 g ai/ha, read-out: Morningglory, Ivy-leaved damage rating (100=total damage to plant; 0=no damage to plant)
How it was run: (§1)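 Visual injury (0–100) at day 13 after a single pre-emergence spray. Rates: 15.625, 62.5, 250 g/ha in acetone–water 50:50 with 0.5% Tween 20. Growth conditions: 24/16° C, 14 h light, 65% humidity.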

[2] = system: velvetleaf (Abutilon theophrasti); test: Test G Pre-Emergence Protocol; settings: Abutilon theophrasti, pre-emergence, 312 h, evaluated after 13 days; for pest or weed control at 15.625 g/ha: 15.625 g ai/ha; for pest or weed control at 15.625 g/ha / pest or weed control at 250 g/ha: read-out: Velvetleaf damage rating (100=total damage to plant; 0=no damage to plant); for pest or weed control at 62.5 g/ha: 62.5 g ai/ha, 100=total damage to plant, 0=no damage to plant, read-out: plant damage rating, Velvetleaf; for pest or weed control at 250 g/ha: 250 g ai/ha
How it was run: as §1

[3] = system: redroot pigweed (Amaranthus retroflexus); test: Test G Pre-Emergence Protocol; settings: Amaranthus retroflexus, pre-emergence, 312 h, evaluated after 13 days; for pest or weed control at 15.625 g/ha: 15.625 g ai/ha; for pest or weed control at 15.625 g/ha / pest or weed control at 250 g/ha: read-out: Pigweed, Redroot damage rating (100=total damage to plant; 0=no damage to plant); for pest or weed control at 62.5 g/ha: 62.5 g ai/ha, 100=total damage to plant, 0=no damage to plant, read-out: plant damage rating, Pigweed, Redroot; for pest or weed control at 250 g/ha: 250 g ai/ha
How it was run: as §1

corn (Zea mays) [4] = test: Test G Pre-Emergence Protocol; settings: Zea mays, pre-emergence, 312 h, evaluated after 13 days; for plant injury at 15.625 g/ha: 15.625 g ai/ha; for plant injury at 15.625 g/ha / plant injury at 250 g/ha: read-out: Corn damage rating (100=total damage to plant; 0=no damage to plant); for plant injury at 62.5 g/ha: 62.5 g ai/ha, 100=total damage to plant, 0=no damage to plant, read-out: plant damage rating, Corn; for plant injury at 250 g/ha: 250 g ai/ha
How it was run: as §1

[5] = system: giant foxtail (Setaria faberi); test: Test G Pre-Emergence Protocol; settings: Setaria faberi, pre-emergence, 312 h, evaluated after 13 days; for pest or weed control at 15.625 g/ha: 15.625 g ai/ha; for pest or weed control at 15.625 g/ha / pest or weed control at 250 g/ha: read-out: Foxtail, Giant damage rating (100=total damage to plant; 0=no damage to plant); for pest or weed control at 62.5 g/ha: 62.5 g ai/ha, 100=total damage to plant, 0=no damage to plant, read-out: plant damage rating, Foxtail, Giant; for pest or weed control at 250 g/ha: 250 g ai/ha
How it was run: as §1

[6] = system: barnyardgrass (Echinochloa crus-galli); test: Test G Pre-Emergence Protocol; settings: Echinochloa crus-galli, pre-emergence, 312 h, evaluated after 13 days; for pest or weed control at 15.625 g/ha: 15.625 g ai/ha, read-out: Barnyard grass damage rating (100=total damage to plant; 0=no damage to plant); for pest or weed control at 62.5 g/ha: 62.5 g ai/ha, 100=total damage to plant, 0=no damage to plant, read-out: plant damage rating, Barnyardgrass; for pest or weed control at 250 g/ha: 250 g ai/ha, read-out: Barnyardgrass damage rating (100=total damage to plant; 0=no damage to plant)
How it was run: as §1

[7] = system: ivy-leaved morning glory (Ipomoea hederacea); test: Test G Post-Emergence Protocol; settings: Ipomoea, post-emergence, 312 h; for pest or weed control at 15.625 g/ha: 15.625 g ai/ha, evaluated after 13 days (100=total damage to plant; 0=no damage to plant), read-out: Morningglory, Ivy-leaved damage rating; for pest or weed control at 62.5 g/ha: 62.5 g ai/ha, read-out: Morningglory, Ivy-leaved damage rating (100=total damage to plant; 0=no damage to plant); for pest or weed control at 62.5 g/ha / pest or weed control at 250 g/ha: evaluated after 13 days; for pest or weed control at 250 g/ha: 250 g ai/ha, read-out: damage to plant, Morningglory, Ivy-leaved (100=total damage to plant; 0=no damage to plant)
How it was run: (§2)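 Seedlings grown 8 days in soil in a glasshouse (24/16 °C day/night, 14 h light, 65% humidity) were sprayed post-emergence with compound in acetone/water 50:50 plus 0.5% Tween 20 at 15.625, 62.5 or 250 g/ha. Damage was scored after 13 days on a 0–100 scale (100 = total damage).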

[8] = system: velvetleaf (Abutilon theophrasti); test: Test G Post-Emergence Protocol; settings: Abutilon theophrasti, post-emergence, 312 h; for pest or weed control at 15.625 g/ha: 15.625 g ai/ha, evaluated after 13 days (100=total damage to plant; 0=no damage to plant), read-out: Velvetleaf damage rating; for pest or weed control at 62.5 g/ha: 62.5 g ai/ha, read-out: Velvetleaf damage rating (100=total damage to plant; 0=no damage to plant); for pest or weed control at 62.5 g/ha / pest or weed control at 250 g/ha: evaluated after 13 days; for pest or weed control at 250 g/ha: 250 g ai/ha, read-out: damage to plant, Velvetleaf (100=total damage to plant; 0=no damage to plant)
How it was run: as §2

[9] = system: redroot pigweed (Amaranthus retroflexus); test: Test G Post-Emergence Protocol; settings: Amaranthus retroflexus, post-emergence, 312 h; for pest or weed control at 15.625 g/ha: 15.625 g ai/ha, evaluated after 13 days (100=total damage to plant; 0=no damage to plant), read-out: Pigweed, Redroot damage rating; for pest or weed control at 62.5 g/ha: 62.5 g ai/ha, read-out: Pigweed, Redroot damage rating (100=total damage to plant; 0=no damage to plant); for pest or weed control at 62.5 g/ha / pest or weed control at 250 g/ha: evaluated after 13 days; for pest or weed control at 250 g/ha: 250 g ai/ha, read-out: damage to plant, Pigweed, Redroot (100=total damage to plant; 0=no damage to plant)
How it was run: as §2

corn (Zea mays) [10] = test: Test G Post-Emergence Protocol; settings: Zea mays, post-emergence, 312 h; for plant injury at 15.625 g/ha: 15.625 g ai/ha, evaluated after 13 days (100=total damage to plant; 0=no damage to plant), read-out: Corn damage rating; for plant injury at 62.5 g/ha: 62.5 g ai/ha, read-out: Corn damage rating (100=total damage to plant; 0=no damage to plant); for plant injury at 62.5 g/ha / plant injury at 250 g/ha: evaluated after 13 days; for plant injury at 250 g/ha: 250 g ai/ha, read-out: damage to plant, Corn (100=total damage to plant; 0=no damage to plant)
How it was run: as §2

[11] = system: giant foxtail (Setaria faberi); test: Test G Post-Emergence Protocol; settings: Setaria faberi, post-emergence, 312 h; for pest or weed control at 15.625 g/ha: 15.625 g ai/ha, evaluated after 13 days (100=total damage to plant; 0=no damage to plant), read-out: Foxtail, Giant damage rating; for pest or weed control at 62.5 g/ha: 62.5 g ai/ha, read-out: Foxtail, Giant damage rating (100=total damage to plant; 0=no damage to plant); for pest or weed control at 62.5 g/ha / pest or weed control at 250 g/ha: evaluated after 13 days; for pest or weed control at 250 g/ha: 250 g ai/ha, read-out: damage to plant, Foxtail, Giant (100=total damage to plant; 0=no damage to plant)
How it was run: as §2

[12] = system: barnyardgrass (Echinochloa crus-galli); test: Test G Post-Emergence Protocol; settings: Echinochloa crus-galli, post-emergence, 312 h; for pest or weed control at 15.625 g/ha: 15.625 g ai/ha, evaluated after 13 days (100=total damage to plant; 0=no damage to plant), read-out: Barnyardgrass damage rating; for pest or weed control at 62.5 g/ha: 62.5 g ai/ha, read-out: Barnyardgrass damage rating (100=total damage to plant; 0=no damage to plant); for pest or weed control at 62.5 g/ha / pest or weed control at 250 g/ha: evaluated after 13 days; for pest or weed control at 250 g/ha: 250 g ai/ha, read-out: damage to plant, Barnyardgrass (100=total damage to plant; 0=no damage to plant)
How it was run: as §2

| Compound | pest or weed control at 15.625 g/ha [1] [%] | pest or weed control at 62.5 g/ha [1] [%] | pest or weed control at 250 g/ha [1] [%] | pest or weed control at 15.625 g/ha [2] [%] | pest or weed control at 62.5 g/ha [2] [%] | pest or weed control at 250 g/ha [2] [%] | pest or weed control at 15.625 g/ha [3] [%] | pest or weed control at 62.5 g/ha [3] [%] | pest or weed control at 250 g/ha [3] [%] | plant injury at 15.625 g/ha (corn (Zea mays) [4]) [%] | plant injury at 62.5 g/ha (corn (Zea mays) [4]) [%] | plant injury at 250 g/ha (corn (Zea mays) [4]) [%] | pest or weed control at 15.625 g/ha [5] [%] | pest or weed control at 62.5 g/ha [5] [%] | pest or weed control at 250 g/ha [5] [%] | pest or weed control at 15.625 g/ha [6] [%] | pest or weed control at 62.5 g/ha [6] [%] | pest or weed control at 250 g/ha [6] [%] | pest or weed control at 15.625 g/ha [7] [%] | pest or weed control at 62.5 g/ha [7] [%] | further results |
| --- | --- | --- | --- | --- | --- | --- | --- | --- | --- | --- | --- | --- | --- | --- | --- | --- | --- | --- | --- | --- | --- |
| Cc1ncsc1NC(=O)[C@@H]1C(=O)N(C)C[C@H]1c1ccc(C(F)(F)F)cc1 (racemic) [Compound 1635] | 0 | 0 | 0 | 0 | 0 | 0 | 0 | 0 | 0 | 0 | 0 | 0 | 0 | 0 | 0 | 0 | 0 | 0 | 0 | 0 | pest or weed control at 250 g/ha [7]: 0%; pest or weed control at 15.625 g/ha [8]: 0%; pest or weed control at 62.5 g/ha [8]: 0%; pest or weed control at 250 g/ha [8]: 0%; pest or weed control at 15.625 g/ha [9]: 0%; pest or weed control at 62.5 g/ha [9]: 0%; pest or weed control at 250 g/ha [9]: 10%; plant injury at 15.625 g/ha (corn (Zea mays) [10]): 0%; plant injury at 62.5 g/ha (corn (Zea mays) [10]): 0%; plant injury at 250 g/ha (corn (Zea mays) [10]): 0%; pest or weed control at 15.625 g/ha [11]: 0%; pest or weed control at 62.5 g/ha [11]: 10%; pest or weed control at 250 g/ha [11]: 40%; pest or weed control at 15.625 g/ha [12]: 0%; pest or weed control at 62.5 g/ha [12]: 0%; pest or weed control at 250 g/ha [12]: 30% |
| Cc1nc(NC(=O)[C@@H]2C(=O)N(C)C[C@H]2c2ccc(C(F)(F)F)cc2)ccc1Cl (racemic) [Compound 1642] | 0 | 0 | 0 | 0 | 0 | 0 | 0 | 0 | 0 | 0 | 0 | 10 | 0 | 0 | 20 | 0 | 0 | 0 | 0 | 0 | pest or weed control at 250 g/ha [7]: 0%; pest or weed control at 15.625 g/ha [8]: 0%; pest or weed control at 62.5 g/ha [8]: 0%; pest or weed control at 250 g/ha [8]: 0%; pest or weed control at 15.625 g/ha [9]: 0%; pest or weed control at 62.5 g/ha [9]: 0%; pest or weed control at 250 g/ha [9]: 20%; plant injury at 15.625 g/ha (corn (Zea mays) [10]): 0%; plant injury at 62.5 g/ha (corn (Zea mays) [10]): 0%; plant injury at 250 g/ha (corn (Zea mays) [10]): 0%; pest or weed control at 15.625 g/ha [11]: 0%; pest or weed control at 62.5 g/ha [11]: 30%; pest or weed control at 250 g/ha [11]: 70%; pest or weed control at 15.625 g/ha [12]: 0%; pest or weed control at 62.5 g/ha [12]: 0%; pest or weed control at 250 g/ha [12]: 10% |
